The values that follow come from patent US20230051589A1, “COMPOUNDS AND COMPOSITIONS FOR TREATING CONDITIONS ASSOCIATED WITH NLRP ACTIVITY” (Novartis AG, priority 2018, published 2023).

A value given as a limit tells only on which side of the number the result lay.

For the first test, the system named is IL-1β production in PMA-differentiated THP-1 cells. Description: IL-1β production in PMA-differentiated THP-1 cells stimulated with gramicidin (hTHP-1 assay, 2% fetal bovine serum; Procedures 1-3). The following applies: Homo sapiens, THP-1, Table B3; hTHP-1 assay containing 2% fetal bovine serum, gramicidin stimulation, IL-1β readout; read-out: hTHP-1 IC50. Format: cell-based, human. A digest of the protocol:
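PMA-primed THP-1 cells (20 ng/ml PMA, 16-18 h) in RPMI with 2% FBS were pre-incubated with compounds for 1 h, from 100 μM downward in 3-fold steps (0.37% DMSO final), then stimulated with 5 μM gramicidin for 2 h. IL-1β in the supernatant was quantified by HTRF.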
With `CNC(c1ccc(S(N)(=O)=NC(=O)Nc2c3c(cc4c2CC4)CCC3)s1)C1CC1` (single isomer, unassigned) [Example 721, 5-((R) or (S)-cyclopropyl(methylamino)methyl)-N′-((2,4,5,6-tetrahydro-1H-cyclobuta[f]inden-3-yl)carbamoyl)thiophene-2-sulfonimidamide], the IC50 (usually the concentration needed to halve the response being measured) lay within 8 to 40 nM.
The same measure, in the same setting: the figure for `NS(=O)(=NC(=O)Nc1c2c(cc3c1CC3)CCC2)c1cc2c(s1)CCNC2C(F)F` (single isomer, unassigned) [Example 782, (S) or (R) -4-(difluoromethyl)-N′-((2,4,5,6-tetrahydro-1H-cyclobuta[f]inden-3-yl)carbamoyl)-4,5,6,7-tetrahydrothieno[3,2-c]pyridine-2-sulfonimidamide] is 200 to 1000 nM.

The test is the same for the next values; noted with them: Table B3; hTHP-1 assay containing 2% fetal bovine serum, gramicidin stimulation, IL-1β readout; read-out: hTHP-1 IC50.
As to `NS(=O)(=NC(=O)Nc1c2c(cc3c1CC3)CCC2)c1cc2c(s1)CCNC2` (single isomer, unassigned) [Example 716], the IC50 is 8 to 40 nM.
Same read-out and setting: the same measure for `NS(=O)(=NC(=O)Nc1c2c(cc3c1CC3)CCC2)c1cc2c(s1)CCNC2` (single isomer, unassigned) [Example 717]: 200 to 1000 nM.
The same measure, in the same setting: the same measure for `CNC(c1ccc(S(N)(=O)=NC(=O)Nc2c3c(cc4c2CC4)CCC3)s1)C1CC1` (single isomer, unassigned) [Example 720, 5-((S) or (R)-cyclopropyl(methylamino)methyl)-N′-((2,4,5,6-tetrahydro-1H-cyclobuta[f]inden-3-yl)carbamoyl)thiophene-2-sulfonimidamide]: 8 to 40 nM; for `NS(=O)(=NC(=O)Nc1c2c(cc3c1CC3)CCC2)c1cc2c(s1)CCNC2C(F)F` (single isomer, unassigned) [Example 783, (R) or (S) -4-(difluoromethyl)-N′-((2,4,5,6-tetrahydro-1H-cyclobuta[f]inden-3-yl)carbamoyl)-4,5,6,7-tetrahydrothieno[3,2-c]pyridine-2-sulfonimidamide]: 200 to 1000 nM; for `NS(=O)(=NC(=O)Nc1c2c(cc3c1CCC3)CCC2)c1cc2c(s1)CCNC2` (single isomer, unassigned) [Example 787, (R) or (S)-N′-((1,2,3,5,6,7-hexahydro-s-indacen-4-yl)carbamoyl)-4,5,6,7-tetrahydrothieno[3,2-c]pyridine-2-sulfonimidamide]: 40 to 200 nM.
Turning to `NS(=O)(=NC(=O)Nc1c2c(cc3c1CCC3)CCC2)c1cc2c(s1)CCNC2` (single isomer, unassigned) [Example 788, (S) or (R)-N′-((1,2,3,5,6,7-hexahydro-5-indacen-4-yl)carbamoyl)-4,5,6,7-tetrahydrothieno[3,2-c]pyridine-2-sulfonimidamide], the IC50 is 200 to 1000 nM.
The same measure, in the same setting: the figure for `NS(=O)(=NC(=O)Nc1c2c(cc3c1CCC3)CCC2)c1cc2c(s1)CCOC2` (single isomer, unassigned) [Example 789, (R) or (S)-N′-((1,2,3,5,6,7-hexahydro-5-indacen-4-yl)carbamoyl)-6,7-dihydro-4H-thieno[3,2-c]pyran-2-sulfonimidamide] is 200 to 1000 nM.
Take `NS(=O)(=NC(=O)Nc1c2c(cc3c1CCC3)CCC2)c1cc2c(s1)CCOC2` (single isomer, unassigned) [Example 790, (S) or (R)-N′-((1,2,3,5,6,7-hexahydro-s-indacen-4-yl)carbamoyl)-6,7-dihydro-4H-thieno[3,2-c]pyran-2-sulfonimidamide]: the IC50 was in the range of 5000 to 30000 nM.

The test is the same for the next values; noted with them: hTHP-1 assay containing 2% fetal bovine serum, Table B2, class symbols; read-out: IC50.
For the molecule `CN(C)C(c1ccc(S(N)(=O)=NC(=O)Nc2c3c(cc4c2CCC4)CCC3)cc1)C(F)(F)F` (single isomer, unassigned) [Example 667, (S,R) or (R,R)-4-(1-(dimethylamino)-2,2,2-trifluoroethyl)-N′-((1,2,3,5,6,7-hexahydro-s-indacen-4-yl)carbamoyl) benzenesulfonimidamide], the IC50 fell in the range of 200 to 1000 nM.
Still for that read-out and setting: the same measure for `CN(C)[C@H](c1ccc([S@](N)(=O)=NC(=O)Nc2c3c(cc4c2CCC4)CCC3)cc1)C(F)(F)F` (single isomer, unassigned) [Example 668, (R,R) or (S,R)-4-(1-(dimethylamino)-2,2,2-trifluoroethyl)-N′-((1,2,3,5,6,7-hexahydro-s-indacen-4-yl)carbamoyl) benzenesulfonimidamide]: 1000 to 5000 nM.
Same read-out and setting: the figure for `Cc1c(C2CC2)cc2c(c1NC(=O)N=S(N)(=O)c1sc(C(C)(C)O)cc1F)CCC2` (single isomer, unassigned) [Example 685, (R) or (S)-N′-((6-cyclopropyl-5-methyl-2,3-dihydro-1H-inden-4-yl)carbamoyl)-3-fluoro-5-(2-hydroxypropan-2-yl)thiophene-2-sulfonimidamide] is 8 to 40 nM; for `Cc1c(C2CC2)cc2c(c1NC(=O)N=S(N)(=O)c1sc(C(C)(C)O)cc1F)CCC2` (single isomer, unassigned) [Example 686, (S) or (R)-N′-((6-cyclopropyl-5-methyl-2,3-dihydro-1H-inden-4-yl)carbamoyl)-3-fluoro-5-(2-hydroxypropan-2-yl)thiophene-2-sulfonimidamide] it is 1000 to 5000 nM.
Same read-out and setting: the same measure for `CN1CCc2sc(S(N)(=O)=NC(=O)Nc3c4c(cc5c3CCC5)CCC4)cc2C1` (single isomer, unassigned) [Example 687, (R) or (S)-N′-((1,2,3,5,6,7-hexahydro-s-indacen-4-yl)carbamoyl)-5-methyl-4,5,6,7-tetrahydrothieno [3,2-c]pyridine-2-sulfonimidamide]: 40 to 200 nM; for `CN1CCc2sc(S(N)(=O)=NC(=O)Nc3c4c(cc5c3CCC5)CCC4)cc2C1` (single isomer, unassigned) [Example 688, (S) or (R)-N′-((1,2,3,5,6,7-hexahydro-s-indacen-4-yl)carbamoyl)-5-methyl-4,5,6,7-tetrahydrothieno [3,2-c]pyridine-2-sulfonimidamide]: 1000 to 5000 nM.
For `CNCc1csc(S(N)(=O)=NC(=O)Nc2c3c(cc4c2CCC4)CCC3)c1` (single isomer, unassigned) [Example 691, (R) or (S)-N′-((1,2,3,5,6,7-hexahydro-s-indacen-4-yl)carbamoyl)-4-((methylamino)methyl)thiophene-2-sulfonimidamide], the IC50 was in the range of 40 to 200 nM.
Still for that read-out and setting: the figure for `CNCc1csc(S(N)(=O)=NC(=O)Nc2c3c(cc4c2CCC4)CCC3)c1` (single isomer, unassigned) [Example 692, (S) or (R)-N′-((1,2,3,5,6,7-hexahydro-s-indacen-4-yl)carbamoyl)-4-((methylamino)methyl)thiophene-2-sulfonimidamide] is 1000 to 5000 nM.
Consider `NS(=O)(=NC(=O)Nc1c2c(cc3c1CCC3)CCC2)c1cc2c(s1)COCC2` (single isomer, unassigned) [Example 693, (R) or (S)-N′-((1,2,3,5,6,7-hexahydro-s-indacen-4-yl)carbamoyl)-4,7-dihydro-5H-thieno[2,3-c]pyran-2-sulfonimidamide], for which the IC50 was in the range of 200 to 1000 nM.
Still for that read-out and setting: the same measure for `NS(=O)(=NC(=O)Nc1c2c(cc3c1CCC3)CCC2)c1cc2c(s1)COCC2` (single isomer, unassigned) [Example 694, (S) or (R)-N′-((1,2,3,5,6,7-hexahydro-s-indacen-4-yl)carbamoyl)-4,7-dihydro-5H-thieno[2,3-c]pyran-2-sulfonimidamide]: 5000 to 30000 nM; for `CO[C@H]1COc2c(S(N)(=O)=NC(=O)Nc3c4c(cc5c3CCC5)CCC4)cnn2C1` (single isomer, unassigned) [Example 695, (R) or (S)-(6R)-N′-((1,2,3,5,6,7-hexahydro-s-indacen-4-yl)carbamoyl)-6-methoxy-6,7-dihydro-5H-pyrazolo[5,1-b][1,3]oxazine-3-sulfonimidamide]: 40 to 200 nM; for `CO[C@H]1COc2c(S(N)(=O)=NC(=O)Nc3c4c(cc5c3CCC5)CCC4)cnn2C1` (single isomer, unassigned) [Example 696, (S) or (R)-(6R)-N′-((1,2,3,5,6,7-hexahydro-s-indacen-4-yl)carbamoyl)-6-methoxy-6,7-dihydro-5H-pyrazolo[5,1-b][1,3]oxazine-3-sulfonimidamide]: 200 to 1000 nM.
On the same count and under the same terms, the same measure for `CN[C@H]1COc2c(S(N)(=O)=NC(=O)Nc3c4c(cc5c3CCC5)CCC4)cnn2C1` (single isomer, unassigned) [Example 697, (R) or (S)-(6R)-N′-((1,2,3,5,6,7-hexahydro-s-indacen-4-yl)carbamoyl)-6-(methylamino)-6,7-dihydro-5H-pyrazolo[5,1-b][1,3]oxazine-3-sulfonimidamide]: 40 to 200 nM; for `CN[C@H]1COc2c(S(N)(=O)=NC(=O)Nc3c4c(cc5c3CCC5)CCC4)cnn2C1` (single isomer, unassigned) [Example 698, (S) or (R)-(6R)-N′-((1,2,3,5,6,7-hexahydro-s-indacen-4-yl)carbamoyl)-6-(methylamino)-6,7-dihydro-5H-pyrazolo[5,1-b][1,3]oxazine-3-sulfonimidamide]: 1000 to 5000 nM; for `N=S(=O)(NC(=O)Nc1c2c(cc3c1CCC3)CCC2)c1nn(C(F)F)cc1F` (single isomer, unassigned) [Example 710]: 40 to 200 nM.
With `N=S(=O)(NC(=O)Nc1c2c(cc3c1CCC3)CCC2)c1nn(C(F)F)cc1F` (single isomer, unassigned) [Example 711], the IC50 lay in the range of 1000 to 5000 nM.

Staying with this test, now noted: hTHP-1 assay containing 2% fetal bovine serum, Table B2, given as bound; read-out: IC50.
As to `CN(C)C(c1ccc(S(N)(=O)=NC(=O)Nc2c3c(cc4c2CCC4)CCC3)cc1)C(F)(F)F` (single isomer, unassigned) [Example 666, (R,S) or (S,S)-4-(1-(dimethylamino)-2,2,2-trifluoroethyl)-N′-((1,2,3,5,6,7-hexahydro-s-indacen-4-yl)carbamoyl) benzenesulfonimidamide], the half-inhibitory concentration (IC50) was more than 30000 nM.
